In assay [1] the test system is human cervical tumor cell line HeLa (ATCC CCL-2). Briefly: SAC-Formation - Paclitaxel-Induced Assay. It is filed as cell-based. To be noted: Homo sapiens, HeLa, 24 h, HeLa cells, paclitaxel 0.05 μM, test range 0.005 μM-20 μM, read-out: IC50 [mol/l] SAC-Formation - Paclitaxel-Induced Assay. The method in brief:
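HeLa cells incubated overnight at 37° C, then given paclitaxel (0.05 μM final) plus test compound (0.005–20 μM, 0.5% DMSO) together for 24 h at 37° C. Fixed cells stained for phospho-histone H3 Ser10 (mitotic cells) and Hoechst 33342 (cell count); imaging-derived mitotic index fitted by four-parameter Hill equation.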

Another assay has as its target T1, CDK2/CycE (Homo sapiens, UniProt P24941).
T1 construct: GST; purchased ProQinase GmbH (Freiburg, Germany); host or cells: insect cells (Sf9)
In words: CDK2/CycE kinase assay (TR-FRET). Format: biochemical. To be noted: avg, read-out: CDK2 avg (IC50 [mol/l]). The method in brief: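 GST-tagged human CDK2 and CycE from Sf9 cells, preincubated 15 min with compound, then 25 min at 22° C. with 10 μM ATP and 0.75 μM biotinylated Rb-derived peptide (final). Phospho-substrate read by TR-FRET (anti-pRB pSer807/pSer811, Eu anti-mouse IgG, streptavidin-XL665), 665/620 nm ratio, normalised to no-inhibitor and no-enzyme controls.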

The structures appear in SMILES notation.

As to `Cc1nsc(Nc2cnc(C(F)(F)F)cn2)c1C(=O)Nc1ccc(OC[C@H]2CCN(CC(F)(F)F)C2)nc1` [Example 404, 3-Methyl-N-(6-{[(3S)-1-(2,2,2-trifluoroethyl)pyrrolidin-3-yl]methoxy}pyridin-3-yl)-5-{[5-(trifluoromethyl)pyrazin-2-yl]amino}-1,2-thiazole-4-carboxamide], the figures for the IC50 (in assay [1]; at CDK2/CycE) were 0.02 µM and over 20 µM, respectively.

As for `Cc1nsc(Nc2cnc(C(F)(F)F)cn2)c1C(=O)Nc1ccc(F)c(O[C@@H]2CCN(CCC(F)(F)F)C2)c1` [Example 414, N-(4-Fluoro-3-{[(3R)-1-(3,3,3-trifluoropropyl)pyrrolidin-3-yl]oxy}phenyl)-3-methyl-5-{[5-(trifluoromethyl)pyrazin-2-yl]amino}-1,2-thiazole-4-carboxamide], the IC50 in assay [1] is 0.044 µM; at CDK2/CycE, over 20 µM.

Regarding `Cc1nsc(Nc2cnc(C(F)(F)F)cn2)c1C(=O)Nc1ccc(O[C@@H]2CN(CC(F)F)C[C@@H]2F)nc1` [Example 411, N-(6-{[(3R,4S)-1-(2,2-Difluoroethyl)-4-fluoropyrrolidin-3-yl]oxy}pyridin-3-yl)-3-methyl-5-{[5-(trifluoromethyl)pyrazin-2-yl]amino}-1,2-thiazole-4-carboxamide], the IC50 in assay [1] is 0.039 µM; at CDK2/CycE, over 20 µM.

Take `Cc1nsc(Nc2ccc(C#N)cn2)c1C(=O)Nc1ccc(OC2CCCN(CC(F)(F)F)C2)nc1` (stereo not shown) [Example 40, 5-[(5-Cyanopyridin-2-yl)amino]-3-methyl-N-(6-{[1-(2,2,2-trifluoroethyl)piperidin-3-yl]oxy}pyridin-3-yl)-1,2-thiazole-4-carboxamide]: the IC50 in assay [1] was 0.39 µM; at CDK2/CycE, at least 20 µM.

Turning to `Cc1nsc(Nc2cnc3ccccc3n2)c1C(=O)Nc1ccc(NCCN(C)C(=O)OC(C)(C)C)nc1` [Example 434, tert-Butyl methyl(2-{[5-({[3-methyl-5-(quinoxalin-2-ylamino)-1,2-thiazol-4-yl]carbonyl}amino)pyridin-2-yl]amino}ethyl)carbamate], the IC50 in assay [1] was 3.5 µM; at CDK2/CycE, over 20 µM.

In the case of `Cc1nsc(Nc2cnc(C(F)(F)F)cn2)c1C(=O)Nc1ccc(OC[C@H]2CCCN(CCC(F)(F)F)C2)nc1` [Example 378, 3-methyl-5-{[5-(trifluoromethyl)pyrazin-2-yl]amino}-N-(6-{[(3S)-1-(3,3,3-trifluoropropyl)piperidin-3-yl]methoxy}pyridin-3-yl)-1,2-thiazole-4-carboxamide], the IC50 is 0.029 µM in assay [1] and over 20 µM on CDK2/CycE.

Turning to `Cc1nsc(Nc2nc3c(C(F)(F)F)cccc3s2)c1C(=O)Nc1ccc(OCCO)c(F)c1` [Example 4, N-[3-Fluoro-4-(2-hydroxyethoxy)phenyl]-3-methyl-5-{[4-(trifluoromethyl)-1,3-benzothiazol-2-yl]amino}-1,2-thiazole-4-carboxamide], the IC50 in assay [1] was 0.98 µM; at CDK2/CycE, at least 20 µM.

For the compound `Cc1nsc(Nc2cnc(C(F)(F)F)cn2)c1C(=O)Nc1ccc(F)c(O[C@H]2CCN(CCC(F)(F)F)C2)c1` [Example 415, N-(4-Fluoro-3-{[(3S)-1-(3,3,3-trifluoropropyl)pyrrolidin-3-yl]oxy}phenyl)-3-methyl-5-{[5-(trifluoromethyl)pyrazin-2-yl]amino}-1,2-thiazole-4-carboxamide], the figures for the IC50 (in assay [1]; at CDK2/CycE) were 0.053 µM and over 20 µM, respectively.

As for `Cc1nsc(Nc2cnccn2)c1C(=O)Nc1ccc(OCCCN)nc1` [Example 48, N-[6-(3-Aminopropoxy)pyridin-3-yl]-3-methyl-5-(pyrazin-2-ylamino)-1,2-thiazole-4-carboxamide], the IC50 in assay [1] was 6.6 µM; on CDK2/CycE, at least 20 µM.

For the compound `Cc1nsc(Nc2cnc(C(F)(F)F)cn2)c1C(=O)Nc1ccc(O[C@@H]2CN(CCC(F)(F)F)C[C@@H]2F)nc1` [Example 409, N-(6-{[(3R,4S)-4-Fluoro-1-(3,3,3-trifluoropropyl)pyrrolidin-3-yl]oxy}pyridin-3-yl)-3-methyl-5-{[5-(trifluoromethyl)pyrazin-2-yl]amino}-1,2-thiazole-4-carboxamide], the results for the IC50 (in assay [1]; at CDK2/CycE) were 0.039 µM and over 20 µM, respectively.

Turning to `Cc1nsc(Nc2cnc(C(F)(F)F)cn2)c1C(=O)Nc1ccc(F)c(OC[C@H]2CCCN(CC(F)F)C2)c1` [Example 400, N-(3-{[(3S)-1-(2,2-difluoroethyl)piperidin-3-yl]methoxy}-4-fluorophenyl)-3-methyl-5-{[5-(trifluoromethyl)pyrazin-2-yl]amino}-1,2-thiazole-4-carboxamide], the values for the IC50 (in assay [1]; at CDK2/CycE) were 0.059 µM and over 20 µM, respectively.

`Cc1nsc(Nc2cnc(C(F)(F)F)cn2)c1C(=O)Nc1ccc(O[C@@H]2CN(CC(F)(F)F)C[C@@H]2F)nc1` [Example 410, N-(6-{[(3R,4S)-4-Fluoro-1-(2,2,2-trifluoroethyl)pyrrolidin-3-yl]oxy}pyridin-3-yl)-3-methyl-5-{[5-(trifluoromethyl)pyrazin-2-yl]amino}-1,2-thiazole-4-carboxamide]: the IC50 in assay [1] is 0.042 µM; on CDK2/CycE, over 20 µM.

Consider `Cc1nsc(Nc2cncc(C(F)(F)F)n2)c1C(=O)Nc1ccc(OCCN(C)C(=O)OC(C)(C)C)nc1` [Example 430, tert-Butyl methyl{2-[(5-{[(3-methyl-5-{[6-(trifluoromethyl)pyrazin-2-yl]amino}-1,2-thiazol-4-yl)carbonyl]amino}pyridin-2-yl)oxy]ethyl}carbannate], for which the IC50 in assay [1] was 0.045 µM; at CDK2/CycE it was over 20 µM.

On to `Cc1nsc(Nc2ccc(C#N)cn2)c1C(=O)Nc1ccc(OCCCNC(=O)OC(C)(C)C)nc1` [Example 46, tert-Butyl [3-({5-[({5-[(5-cyanopyridin-2-yl)amino]-3-methyl-1,2-thiazol-4-yl}-carbonyl)amino]pyridin-2-yl}oxy)propyl]carbamate], for which the values for the IC50 (in assay [1]; at CDK2/CycE) were 0.25 µM and at least 20 µM, respectively.

As for `Cc1nsc(Nc2cnc(C(F)(F)F)cn2)c1C(=O)Nc1ccc(F)c(O[C@H]2CCN(CC(F)F)C2)c1` [Example 417, N-(3-{[(3S)-1-(2,2-Difluoroethyl)pyrrolidin-3-yl]oxy}-4-fluorophenyl)-3-methyl-5-{[5-(trifluoromethyl)pyrazin-2-yl]amino}-1,2-thiazole-4-carboxamide], the IC50 was 0.032 µM in assay [1] and over 20 µM on CDK2/CycE.

`Cc1nsc(Nc2cnc(C(F)(F)F)cn2)c1C(=O)Nc1ccc(F)c(O[C@@H]2CCN(CC(F)F)C2)c1` [Example 412, N-(3-{[(3R)-1-(2,2-Difluoroethyl)pyrrolidin-3-yl]oxy}-4-fluorophenyl)-3-methyl-5-{[5-(trifluoromethyl)pyrazin-2-yl]amino}-1,2-thiazole-4-carboxamide]: the IC50 in assay [1] is 0.011 µM; on CDK2/CycE, over 20 µM.

Turning to `CCCN1CCC(COc2ccc(NC(=O)c3c(C)nsc3Nc3cnc(C(F)(F)F)cn3)cn2)C(F)(F)C1` (stereo not shown) [Example 394, N-{6-[(3,3-difluoro-1-propylpiperidin-4-yl)methoxy]pyridin-3-yl}-3-methyl-5-{[5-(trifluoromethyl)pyrazin-2-yl]amino}-1,2-thiazole-4-carboxamide], the results for the IC50 (in assay [1]; at CDK2/CycE) were 0.19 µM and over 20 µM, respectively.

Consider `CC(=O)Nc1ccc(NC(=O)c2c(C)nsc2Nc2ccc(C#N)cn2)cn1` [Example 435, N-(6-Acetamidopyridin-3-yl)-5-[(5-cyanopyridin-2-yl)amino]-3-methyl-1,2-thiazole-4-carboxamide], for which the IC50 in assay [1] was 20 µM; at CDK2/CycE, over 20 µM.

With `Cc1nsc(Nc2cnc3ccccc3n2)c1C(=O)Nc1cccc(C(=O)N[C@@H](CCC(N)=O)C(=O)OC(C)(C)C)c1` [Example 56, tert-butyl N^2-[3-({[3-methyl-5-(quinoxalin-2-ylamino)-1,2-thiazol-4-yl]carbonyl}amino)-benzoyl]glutaminate], the figures for the IC50 (in assay [1]; on CDK2/CycE) were 4.3 µM and at least 20 µM, respectively.

As for `Cc1nsc(Nc2cnc(C(F)(F)F)cn2)c1C(=O)Nc1ccc(OCCNC(=O)C(F)(F)F)nc1` [Example 425, 3-Methyl-N-(6-{2-[(trifluoroacetyl)amino]ethoxy}pyridin-3-yl)-5-{[5-(trifluoro-methyl)pyrazin-2-yl]amino}-1,2-thiazole-4-carboxamide], the IC50 in assay [1] was 0.35 µM; at CDK2/CycE, at least 20 µM.

In the case of `Cc1nsc(Nc2cnc(C(F)(F)F)cn2)c1C(=O)Nc1ccc(F)c(OC[C@H]2CCCN(CCC(F)(F)F)C2)c1` [Example 418, N-(4-Fluoro-3-{[(3S)-1-(3,3,3-trifluoropropyl)piperidin-3-yl]methoxy}phenyl)-3-methyl-5-{[5-(trifluoromethyl)pyrazin-2-yl]amino}-1,2-thiazole-4-carboxamide], the IC50 is 0.14 µM in assay [1] and over 20 µM at CDK2/CycE.

`Cc1nsc(Nc2cnc(C(F)(F)F)cn2)c1C(=O)Nc1ccc(OC2CCNCC2)c(F)c1` [Example 431, N-[3-Fluoro-4-(piperidin-4-yloxy)phenyl]-3-methyl-5-{[5-(trifluoromethyl)pyrazin-2-yl]amino}-1,2-thiazole-4-carboxamide]: the IC50 was 10 µM in assay [1] and over 20 µM at CDK2/CycE.

For `Cc1nsc(Nc2cnc3ccccc3n2)c1C(=O)Nc1cccc(C(=O)N2CCOCC2)c1` [Example 52, 3-Methyl-N-[3-(morpholin-4-ylcarbonyl)phenyl]-5-(quinoxalin-2-ylamino)-1,2-thiazole-4-carboxamide], the IC50 was 0.78 µM in assay [1] and at least 20 µM at CDK2/CycE.

The values above are taken from US20170334899A1, “AMINO-SUBSTITUTED ISOTHIAZOLES” (Bayer Pharma Aktiengesellschaft, priority 2014, published 2017).
